Data taken from US8952024B2, “Herbicidal pyrimidone derivatives” (E I du Pont de Nemours and Company, priority 2009, dated 2015).

Tests used:
Type in all cases: in vivo
[1] = tested on: pigweed (Amaranthus retroflexus); test: Test B pre-/postemergence plant response
In short: (§1)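 Seeds sown in loam–sand blend were treated preemergence, and plants at 2–18 cm (1- to 4-leaf stage) in peat-based medium were treated postemergence; compounds were formulated in non-phytotoxic solvent with surfactant. After 13–15 days in greenhouse, response was visually rated against controls, 0 (no effect) to 100 (complete control).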

[2] = tested on: nightshade (eastern black nightshade, Solanum ptycanthum); test: Test B pre-/postemergence plant response; details: Preemergence
In short: as §1

[3] = tested on: galium (catchweed bedstraw, Galium aparine); test: Test B pre-/postemergence plant response; details: Preemergence
In short: as §1

wild oat (Avena fatua) = test: Test B pre-/postemergence plant response
In short: as §1

[4] = tested on: sunflower (common oilseed sunflower, Helianthus annuus); test: Test B pre-/postemergence plant response; details: Preemergence
In short: as §1

[5] = tested on: ducksalad (Heteranthera limosa); test: Test B flooded paddy test; details: for Plant response rating, Ducksalad: Flood (flooded paddy test), 13 to 15 days
In short: (§2)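 Flooded-pot test: water raised to 3 cm above soil when treating, compound put in the water, level unchanged thereafter. Plants were at 2 leaves. Readout after 13 to 15 days, visual, relative to controls; 0 signifies no effect and 100 complete control.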

rice (Oryza sativa) = test: Test B flooded paddy test; details: for Plant response rating, Rice: Flood (flooded paddy test), 13 to 15 days
In short: as §2

[6] = tested on: umbrella sedge (Cyperus difformis); test: Test B flooded paddy test; details: for Plant response rating, Sedge, Umbrella: Flood (flooded paddy test), 13 to 15 days
In short: as §2

[7] = tested on: barnyardgrass (Echinochloa crus-galli); test: Test B flooded paddy test; details: for Plant response rating, Barnyardgrass: Flood (flooded paddy test), 13 to 15 days
In short: as §2

[8] = tested on: canarygrass (Phalaris minor); test: Test B postemergence plant response
In short: (§3)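 Plants at the 1- to 4-leaf stage (2 to 18 cm tall), grown in pots of peat moss/vermiculite medium with wetting agent and starter nutrients, received postemergence applications of test chemicals. After 13 to 15 days in a greenhouse, injury was rated visually against untreated controls on a 0 (no effect) to 100 (complete control) scale.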

[9] = tested on: winter barley (Hordeum vulgare); test: Test B postemergence plant response
In short: as §3

[10] = tested on: windgrass (Apera spica-venti); test: Test B postemergence plant response
In short: as §3

[11] = tested on: chickweed (Stellaria media); test: Test B postemergence plant response
In short: as §3

[12] = 31 g ai/ha, postemergence, scale 0 to 100, 0 is no effect, 100 is complete control
[13] = 250 g ai/ha, Preemergence, 0 to 100 scale
[14] = Postemergence, 62 g ai/ha, scale 0 (no effect) to 100 (complete control), 13 to 15 days
[15] = Postemergence, 125 g ai/ha, visual rating after 13 to 15 days, scale 0 (no effect) to 100 (complete control)
[16] = Postemergence, 250 g ai/ha, scale 0 to 100 (0 no effect, 100 complete control)
[17] = Preemergence, 31 g ai/ha, scale 0 to 100 (0 no effect, 100 complete control)
[18] = Preemergence, 62 g ai/ha, scale 0 to 100, 0 no effect, 100 complete control
[19] = Preemergence, 125 g ai/ha, scale 0 to 100, 0 no effect, 100 complete control
[20] = 31 g ai/ha, scale 0 to 100 (0 no effect, 100 complete control)
[21] = 62 g ai/ha, scale 0 to 100, 0 no effect, 100 complete control
[22] = 125 g ai/ha, scale 0 to 100, 0 no effect, 100 complete control
[23] = 250 g ai/ha, flooded paddy test, visual rating on 0 to 100 scale (0 no effect, 100 complete control) after 13 to 15 days
[24] = 31 g ai/ha, scale of 0 to 100 where 0 is no effect and 100 is complete control
[25] = 62 g ai/ha, scale of 0 to 100 where 0 is no effect and 100 is complete control
[26] = 125 g ai/ha, scale 0 to 100, 0 is no effect, 100 is complete control

For Cc1ccc(Cl)cc1-n1c(-c2ccccc2)ncc(C(=O)C2=C(O)CCCC2=O)c1=O [Compound 52], the “Plant response rating, Pigweed” value [1, 12] was 85, the “Plant response rating, Pigweed” value [1, 13] was 100 and the “Plant response rating, Pigweed” value [1, 14] was 90. The “Plant response rating, Pigweed” value [1, 15] was 95, the “Plant response rating, Pigweed” value [1, 16] was 98 and the “Plant response rating, Pigweed” value [1, 17] was 90. For the same compound, the “Plant response rating, Pigweed” value [1, 18] was 100, the “Plant response rating, Pigweed” value [1, 19] was 100 and the “Plant response rating, Nightshade” value ([2]; 250 g ai/ha, 0 to 100 scale) was 100. The “Plant response rating, Nightshade” value [2, 20] was 90, the “Plant response rating, Nightshade” value [2, 21] was 95 and the “Plant response rating, Nightshade” value [2, 22] was 98. The “Plant response rating, Galium” value ([3]; 250 g ai/ha, 0 to 100 scale) was 95, the “Plant response rating, Galium” value [3, 20] was 0 and the “Plant response rating, Galium” value [3, 21] was 0. For the same compound, the “Plant response rating, Galium” value [3, 22] was 70, the “Plant response rating, Oat, Wild” value (wild oat (Avena fatua); [12]) was 90 and the “Plant response rating, Oat, Wild” value (wild oat (Avena fatua); [13]) was 60. The “Plant response rating, Oat, Wild” value (wild oat (Avena fatua); [14]) was 90, the “Plant response rating, Oat, Wild” value (wild oat (Avena fatua); [15]) was 95 and the “Plant response rating, Oat, Wild” value (wild oat (Avena fatua); [16]) was 95. For the same compound, the “Plant response rating, Oat, Wild” value (wild oat (Avena fatua); [17]) was 0, the “Plant response rating, Oat, Wild” value (wild oat (Avena fatua); [18]) was 5 and the “Plant response rating, Oat, Wild” value (wild oat (Avena fatua); [19]) was 5. The “Plant response rating, Sunflower” value ([4]; 250 g ai/ha, 0 to 100 scale) was 75, the “Plant response rating, Sunflower” value [4, 20] was 10 and the “Plant response rating, Sunflower” value [4, 21] was 10. The “Plant response rating, Sunflower” value [4, 22] was 70, the “Plant response rating, Flood, Ducksalad” value [5, 23] was 70 and the “Plant response rating, Ducksalad” value [5, 24] was 0. The “Plant response rating, Ducksalad” value [5, 25] was 0, the “Plant response rating, Ducksalad” value [5, 26] was 40 and the “Plant response rating, Flood, Rice” value (rice (Oryza sativa); [23]) was 60. For the same compound, the “Plant response rating, Rice” value (rice (Oryza sativa); [24]) was 0, the “Plant response rating, Rice” value (rice (Oryza sativa); [25]) was 0 and the “Plant response rating, Rice” value (rice (Oryza sativa); [26]) was 50. For the same compound, the “Plant response rating, Flood, Sedge, Umbrella” value [6, 23] was 40, the “Plant response rating, Sedge, Umbrella” value [6, 24] was 20 and the “Plant response rating, Sedge, Umbrella” value [6, 25] was 30. For the same compound, the “Plant response rating, Sedge, Umbrella” value [6, 26] was 30, the “Plant response rating, Flood, Barnyardgrass” value [7, 23] was 55 and the “Plant response rating, Barnyardgrass” value [7, 24] was 0. The “Plant response rating, Barnyardgrass” value [7, 25] was 0, the “Plant response rating, Barnyardgrass” value [7, 26] was 40 and the “Plant response rating, Canarygrass” value [8, 12] was 0. The “Plant response rating, Canarygrass” value [8, 14] was 50, the “Plant response rating, Canarygrass” value [8, 15] was 65 and the “Plant response rating, Canarygrass” value [8, 16] was 85. The “Plant response rating, Barley” value [9, 12] was 0, the “Plant response rating, Barley” value [9, 14] was 0 and the “Plant response rating, Barley” value [9, 15] was 25. For the same compound, the “Plant response rating, Barley” value [9, 16] was 25, the “Plant response rating, Windgrass” value [10, 12] was 60 and the “Plant response rating, Windgrass” value [10, 14] was 80. The “Plant response rating, Windgrass” value [10, 15] was 90, the “Plant response rating, Windgrass” value [10, 16] was 100 and the “Plant response rating, Chickweed” value [11, 12] was 95. The “Plant response rating, Chickweed” value [11, 14] was 95, the “Plant response rating, Chickweed” value [11, 15] was 95 and the “Plant response rating, Chickweed” value [11, 16] was 98.
